Source: ChEMBL document CHEMBL1201862, “PubChem BioAssay data set” (2004)
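The compound was tested at five concentrations on cells cultured in 96-well plates, with a 48-hour exposure period. Here, GI50 denotes the concentration required for 50% inhibition of growth.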 Calls of active or inactive are those of the source. Rule as the data show it: active = GI50 up to about 1.1 µM and inactive = higher.

Columns and labels:
Assay in all cases: growth of human tumour cells (NCI), 48 h
[1] = system: A549
[2] = system: ACHN
[3] = system: CCRF-CEM
[4] = system: COLO 205
[5] = system: EKVX
[6] = system: HCT-116
[7] = system: LXFL 529
[8] = system: M14
[9] = system: Malme-3M
[10] = system: OVCAR-4
[11] = system: OVCAR-8
[12] = system: SK-MEL-28
[13] = system: SR
[14] = system: U-251
[15] = system: UACC-257
[16] = system: A498
[17] = system: SK-OV-3
[18] = system: HOP-92

Measured: GI50

CCOC(=O)/C(C(=O)c1ccccc1)=C1/NCCN1C
inactive: [1] > 100 µM | [2] > 100 µM | [3] > 100 µM | [4] > 100 µM | [5] > 100 µM | [6] > 100 µM | [7] > 100 µM | [8] > 100 µM | [9] > 100 µM | [10] > 100 µM | [11] > 100 µM | [12] > 100 µM | [13] > 100 µM | [14] > 100 µM | [15] > 100 µM

CC1=C(c2ccccc2)C(c2ccccc2)=C(c2ccccc2)C2(c3ccccc3)C(=O)C(C)CN12 (stereo not given)
inactive: [16] > 100 µM | [1] 57.1 µM | [2] 41.4 µM | [5] 41.4 µM | [6] 45.3 µM | [7] 43.8 µM | [8] 51.6 µM | [9] > 100 µM | [10] 20.8 µM | [11] 17.9 µM | [12] > 100 µM | [17] > 100 µM | [13] 26.4 µM | [14] 30.3 µM | [15] 30.5 µM

CCOc1ccc(Nc2nc(C)c(C(=O)/C=C/c3ccc(Cl)cc3Cl)s2)cc1
inactive: [16] 22.8 µM | [1] 23.2 µM | [2] 27.4 µM | [3] 29.8 µM | [4] 17.8 µM | [5] 31.1 µM | [6] 21.1 µM | [18] 30 µM | [7] 18.8 µM | [8] 23.9 µM | [9] 26.3 µM | [10] 10.8 µM | [11] 21.4 µM | [12] 22.7 µM | [17] 28.6 µM | [13] 28.6 µM | [14] 19.8 µM | [15] 24.6 µM

Cc1ccc(NC(=O)CC/C(CC(=O)C(C)(C)C)=N/NC(=O)C(N)=O)cc1C
inactive: [16] > 100 µM | [1] > 100 µM | [2] > 100 µM | [3] > 100 µM | [4] > 100 µM | [5] > 100 µM | [6] > 100 µM | [18] > 100 µM | [7] > 100 µM | [8] > 100 µM | [9] > 100 µM | [10] > 100 µM | [11] > 100 µM | [12] > 100 µM | [17] > 100 µM | [13] > 100 µM | [14] > 100 µM | [15] > 100 µM

Cc1c(C)n(COCCO)c2ncnc(N)c12
inactive: [16] > 100 µM | [1] > 100 µM | [2] > 100 µM | [3] > 100 µM | [4] > 100 µM | [5] > 100 µM | [18] > 100 µM | [7] > 100 µM | [8] > 100 µM | [10] > 100 µM | [11] > 100 µM | [12] > 100 µM | [17] > 100 µM | [13] > 100 µM | [14] > 100 µM

CN(C)c1ccc(/C=N\N2C(=O)c3ccccc3C2=O)cc1
inactive: [16] > 100 µM | [1] > 100 µM | [2] > 100 µM | [3] > 100 µM | [5] > 100 µM | [6] > 100 µM | [18] > 100 µM | [7] > 100 µM | [8] > 100 µM | [9] > 100 µM | [10] > 100 µM | [11] > 100 µM | [12] > 100 µM | [13] > 100 µM | [15] > 100 µM

N#C/C(=C/c1ccsc1)C(=O)c1ccccc1
inactive: [1] > 100 µM | [2] > 100 µM | [3] > 100 µM | [4] > 100 µM | [5] > 100 µM | [6] > 100 µM | [18] > 100 µM | [7] > 100 µM | [8] > 100 µM | [9] > 100 µM | [10] > 100 µM | [11] > 100 µM | [12] > 100 µM | [17] > 100 µM | [13] > 100 µM | [14] > 100 µM | [15] > 100 µM

C[C@]12Cc3conc3C(O)=C1CC[C@@H]1C2CC[C@@]2(C)C1CC[C@]2(C)O (stereo not given in full)
inactive: [16] 16.1 µM | [1] 28.1 µM | [2] 26.5 µM | [3] 8.97 µM | [4] 20.4 µM | [5] 21.5 µM | [6] 16.3 µM | [18] 32.4 µM | [7] 15.1 µM | [8] 16 µM | [9] 18.5 µM | [10] 17.2 µM | [11] 23.4 µM | [12] 19.9 µM | [17] 24.3 µM | [14] 19.7 µM | [15] 22.4 µM
